{"source": "patent US12391684B2", "about": "“Pharmaceutical formulations and methods for the treatment of gastrointestinal disorders” (Renexxion, LLC, priority 2018, dated 2025)", "key": {"[1]": {"assay": "12-month stability of the anhydrous form in stability chambers (HPLC purity, water content)", "type": "physicochemical", "conditions": "25° C./60% RH", "method": "The dihydrochloride salt, anhydrous form of (3S, 4R, 3′R)-6-[4-(4-amino-5-chloro-2-methoxy-benzoylamino)-3-methoxy-piperidin-1-yl]-hexanoic acid 1-azabicyclo[2.2.2]oct-3′-yl ester, was placed in stability chambers with temperature and humidity controlled, for up to 12 months. The temperature was set at 25° C., and the relative humidity was set at 60%. The samples were assayed at time zero, then at 3, 6, 9, and 12 months using an HPLC method. The HPLC conditions were as follows: • Column: Inertsil C8-3, 250 mm length, 3 mm diameter, 5 μm particle size • Mobile Phase A: 2000 mL water+3 mL formic acid • Mobile Phase B: 1000 mL methanol+3 mL formic acid • Flow rate: 0.6 mL/min • Detection wavelength: 275 nm • Injection volume: 20 uL • Time: 50 minutes"}, "[2]": {"assay": "Dehydration profile by thermographic analysis (TGA)", "type": "physicochemical", "conditions": "dry nitrogen, 5° C./minute, 25° C. to 250° C.", "method": "Thermographic analysis (TGA) curves were generated for the anhydrate and trihydrate using a Perkin Elmer TGA-7. Three to five milligram samples were weighed into aluminum sample pans and run under dry nitrogen at 5° C./minute from 25° C. to 250° C. The data were exported to Excel to enable plotting."}, "[3]": {"assay": "Stability of the trihydrate form stored in bulk in a GMP storage facility", "type": "physicochemical", "conditions": "room temperature, relative humidity >30%, up to 11 years", "method": "The trihydrate form was evaluated for stability with regard to purity and strength over a time period of up to 11 years, by storing it in a GMP facility under controlled conditions of temperature and relative humidity (temperature=room temperature and relative humidity >30%)."}, "[4]": {"conditions": "for Resulting Form: Antisolvent Water, Ambient, stirred 3 weeks", "method": "Noncompetitive Slurry Experiments for Polymorph Screening: Noncompetitive slurry experiments were performed as a supplemental polymorph screening method. When suspensions of a polymorphic material are prepared, any polymorphic form with a lower solubility (more thermodynamically stable form) can nucleate. The nucleated forms can convert all the residual solids to the nucleated form via solvent-mediated phase transition. Suspensions of the isolated Form I were prepared by adding excess solid to several different solvent systems. The suspensions were stirred vigorously at ambient temperature for 3 weeks. The remaining solids were collected by vacuum filtration and analyzed by powder X-ray diffraction to determine if any changes in the crystalline form of the solids occurred."}}, "note": "Structures can show the parent of a compound that is named as a salt. Where two headings read alike, the source gives them in different places.", "data": [{"smiles": "COc1cc(N)c(Cl)cc1C(=O)N[C@@H]1CCN(CCCCCC(=O)O[C@H]2CN3CCC2CC3)C[C@@H]1OC", "note": "[(3S, 4R, 3′R)-6-[4-(4-amino-5-chloro-2-methoxy-benzoylamino)-3-methoxy-piperidin-1-yl]-hexanoic acid 1-azabicyclo[2.2.2]oct-3′-yl ester]", "values": [{"measurement": "Purity HPLC (Area %)", "setting": "[1]; 3 months", "result": 99.2, "unit": "Area %"}, {"measurement": "Water Content", "setting": "[1]; 3 months", "result": 6.47, "unit": "%"}, {"measurement": "Purity HPLC (Area %)", "setting": "[1]; 6 months", "result": 99.3, "unit": "Area %"}, {"measurement": "Water Content", "setting": "[1]; 6 months", "result": 8.47, "unit": "%"}, {"measurement": "Water Content", "setting": "[1]; 6 months, listed as Anhydrous Form of the Dihydrochloride Salt", "result": 8.47, "unit": "%"}, {"measurement": "Purity HPLC (Area %)", "setting": "[1]; 9 months", "result": 99.2, "unit": "Area %"}, {"measurement": "Water Content", "setting": "[1]; 9 months", "result": 8.20, "unit": "%"}, {"measurement": "Purity HPLC (Area %)", "setting": "[1]; 12 months", "result": 99.3, "unit": "Area %"}, {"measurement": "Water Content", "setting": "[1]; 12 months", "result": 8.43, "unit": "%"}, {"measurement": "Purity HPLC (Area %)", "setting": "[1]; time 0 months", "result": 99.3, "unit": "Area %"}, {"measurement": "Water Content", "setting": "[1]; time 0 months", "result": 0.45, "unit": "%"}, {"measurement": "Water Content", "setting": "[1]; time 0 months, listed as Anhydrous Form of the Dihydrochloride Salt", "result": 0.45, "unit": "%"}, {"measurement": "Decrease in strength of the active ingredient due to increase in water content", "setting": "[1]; up to 12 months", "result": "approximately 8%"}, {"measurement": "Purity of the compound versus specifications (Purity HPLC Area %)", "setting": "[1]; up to 12 months", "result": "remained within the specifications"}, {"measurement": "Dehydration mass loss (TGA)", "setting": "[2]", "result": "absent"}]}, {"smiles": "COc1cc(N)c(Cl)cc1C(=O)N[C@@H]1CCN(CCCCCC(=O)O[C@H]2CN3CCC2CC3)C[C@@H]1OC", "note": "[Compound 1, (3S, 4R, 3′R)-6-[4-(4-amino-5-chloro-2-methoxy-benzoylamino)-3-methoxy-piperidin-1-yl]-hexanoic acid 1-azabicyclo[2.2.2]oct-3′-yl ester di-hydrochloride salt]", "values": [{"measurement": "Stability under GMP storage", "setting": "[3]", "result": "stable under GMP storage"}]}, {"smiles": "COc1cc(N)c(Cl)cc1C(=O)N[C@@H]1CCN(CCCCCC(=O)O[C@H]2CN3CCC2CC3)C[C@@H]1OC", "note": "[Form I, (3S, 4R, 3′R)-6-[4-(4-amino-5-chloro-2-methoxy-benzoylamino)-3-methoxy-piperidin-1-yl]-hexanoic acid 1-azabicyclo[2.2.2]oct-3′-yl ester]", "values": [{"measurement": "Resulting Form", "setting": "[4]; Solvent 1-Propanol", "result": "Form 1"}, {"measurement": "Resulting Form", "setting": "[4]; Solvent Acetonitrile", "result": "Form 1"}, {"measurement": "Resulting Form", "setting": "[4]; Solvent Ethanol", "result": "Form 1"}, {"measurement": "Resulting Form", "setting": "[4]; Solvent Methanol", "result": "Form 1"}, {"measurement": "Resulting Form", "setting": "[4]; Solvent Water", "result": "Form 1"}, {"measurement": "Thermodynamic stability among anhydrous forms", "setting": "[4]; outcome of the slurry experiments", "result": "most thermodynamically stable anhydrous form"}]}]}
